Source: patent US20250129088A1, “CEREBLON E3 UBIQUITIN LIGASE INHIBITOR” (Gan & Lee Pharmaceuticals Co., Ltd., priority 2022, published 2025)

Legend:
Assay type in all cases: cell-based
MV-4-11 cells = experiment: MV-4-11 cell proliferation inhibition, CCK-8; conditions: Homo sapiens, MV4-11, 96 h, MV-4-11, 4 days, Table 8, positive control Ibrutinib
Description: The complete medium required for MV-4-11 cells is IMDM (ATCC, Product number: 30-2005) basal medium containing 10% fetal bovine serum. MV-4-11 cells were seeded in a 96-well plate at a density of 7,500 cells/well, and different concentrations of the compound of the present invention and positive control samples Alisertib (source: Bide Pharmaceuticals), Palbociclib (source: Bide Pharmaceuticals), Ibrutinib (source Bide Pharmaceuticals) treated cells. The cells were incubated in a 37° C., 5% CO2 cell incubator for 4 days. Cell viability was detected using the CCK-8 kit (Beyotime, Product number: C0040) according to the manufacturer's instructions. According to the inhibition rate, GraphPad Prism software was used to calculate the IC50 value of each compound for 4 days, and the results are shown in Table 6-8.

Z138 cells = experiment: Z138 cell proliferation inhibition, CCK-8; conditions: Homo sapiens, Z-138, 96 h, Z138, 4 days
Description: The complete medium required for Z138 cells is IMDM (ATCC, Product number: 30-2005) basal medium containing 10% horse serum. Z138 cells were seeded in a 96-well plate at a density of 10,000 cells/well, and different concentrations of the compound of the present invention and a positive control sample Ibrutinib (source: Bide Pharmaceuticals) were prepared to treat the cells. The cells were incubated in a 37° C., 5% CO2 cell incubator for 4 days. Cell viability was detected using the CCK-8 kit (Beyotime, Product number: C0040) according to the manufacturer's instructions. According to the inhibition rate, the GraphPad Prism software was used to calculate the IC50 value of each compound for 4 days, and the results are shown in Table 14.

NCI-H358 cells = experiment: NCI-H358 cell proliferation inhibition, CCK-8; conditions: Homo sapiens, 96 h, NCI-H358, 4 days
Description: The complete medium required for NCI-H358 cells is RPMI1640 (ATCC, Product number: 30-2001) basal medium containing 10% fetal bovine serum. NCI-H358 cells were seeded in a 96-well plate at a density of 2,800 cells/well, and the next day, different concentrations of the compounds of the present invention were prepared to treat the cells, and the cells were treated for 4 days in a 37° C., 5% CO2 cell culture incubator. Cell viability was detected using a CCK-8 kit (Beyotime, Product number: C0040) according to the manufacturer's instructions. According to the inhibition rate, the GraphPad Prism software was used to calculate the IC50 value of each compound for 4 days, and the results are shown in Table 5.

22RV1 cells = experiment: 22RV1 cell proliferation inhibition, CCK-8; conditions: Homo sapiens, 168 h, 22RV1, 7 days
Description: The complete medium required for 22RV1 cells is RPM11640 (ATCC, Product number: 30-2001) basal medium containing 10% fetal bovine serum. 22RV1 cells were seeded in a 96-well plate at a density of 4,000 cells/well, and the next day, different concentrations of the compound of the present invention and the positive control sample JQ1 (source: Bide Pharmaceuticals) were prepared to treat the cells, and the cells were cultured at 37° C. and 5% CO2 for 7 days in the incubator. Cell viability was detected using the CCK-8 kit (Beyotime, Product number: C0040) according to the manufacturer's instructions. According to the inhibition rate, the GraphPad Prism software was used to calculate the IC50 value of each compound for 7 days, and the results are shown in Table 4.

SMILES | IC50 (MV-4-11 cells) [nM] | IC50 (Z138 cells) [µM] | IC50 (NCI-H358 cells) [µM] | IC50 (22RV1 cells) [nM]
C=CC(=O)N1CCC[C@@H](n2nc(-c3ccc(Oc4ccccc4)cc3)c3c(N)ncnc32)C1 [Ibrutinib, reference compound] | 77 | 21.1 | – | –
COc1cc2ncnc(Nc3ccc(F)c(Cl)c3)c2cc1OCCCN1CCN(CCOCCC(=O)N2CCC3(CCc4cc5c(cc4O3)C(=O)N(C3CCC(=O)NC3=O)C5)CC2)CC1 (stereo not drawn) [PROTAC 17, 3-(1-(3-(2-(4-(3-((4-((3-chloro-4-fluorophenyl)amino)-7-methoxyquinazolin-6-yl)oxy)propyl)piperazin-1-yl)ethoxy)propionyl)-8′-oxo-3′,4′,6′,8′-tetrahydro-7′H-spiro[piperidine-4,2′-pyrano[2,3-f]isoindole]-7′-yl)piperidine-2,6-dione] | – | – | 16.8 | –
COc1cc2ncnc(Nc3ccc(F)c(Cl)c3)c2cc1OCCCN1CCN(CCOCCC(=O)N2CCC3(CC2)COc2cc4c(cc2O3)CN(C2CCC(=O)NC2=O)C4=O)CC1 (stereo not drawn) [PROTAC 18, 3-(1-(3-(2-(4-(3-((4-((3-chloro-4-fluorophenyl)amino)-7-methoxyquinazolin-6-yl)oxy)propyl)piperazin-1-yl)ethoxy)propionyl)-6′-oxo-6′,8′-dihydro-3′H,7′H-spiro[piperidine-4, 2′-[1,4]dioxino[2,3-f]isoindol]-7′-yl)piperidine-2,6-dione] | – | – | 42.6 | –
COc1cc2ncnc(Nc3ccc(F)c(Cl)c3)c2cc1OCCCN1CCN(CCOCCC(=O)N2CCC3(CCc4cc5c(cc4O3)C(=O)N(C3CCC(=O)NC3=O)C5=O)CC2)CC1 (stereo not drawn) [PROTAC 21, 1-(3-(2-(4-(3-((4-((3-chloro-4-fluorophenyl)amino)-7-methoxyquinazolin-6-yl)oxy)propyl)piperazin-1-yl)ethoxy)propionyl)-7′-(2,6-dioxopiperidin-3-yl)-3′,4′-dihydro-6′H-spiro[piperidine-4,2′-pyrano[2,3-f]isoindole]-6′,8′(7′H)-dione] | – | – | 23.2 | –
COc1cc2ncnc(Nc3ccc(F)c(Cl)c3)c2cc1OCCCN1CCN(CCOCCC(=O)N2CCC3(CC2)COc2cc4c(cc2C3)C(=O)N(C2CCC(=O)NC2=O)C4=O)CC1 (stereo not drawn) [PROTAC 22, 1-(3-(2-(4-(3-((4-((3-chloro-4-fluorophenyl)amino)-7-methoxyquinazolin-6-yl)oxy)propyl)piperazin-1-yl)ethoxy)propionyl)-7′-(2,6-dioxopiperidin-3-yl)-2′H-spiro[piperidine-4,3′-pyrano[2,3-f]isoindole]-6′,8′(4′H,7′H)-dione] | – | – | 52.1 | –
COc1cc2ncnc(Nc3ccc(F)c(Cl)c3)c2cc1OCCCN1CCN(CCOCCC(=O)N2CC3(CCc4cc5c(cc4O3)C(=O)N(C3CCC(=O)NC3=O)C5=O)C2)CC1 (stereo not drawn) [PROTAC 23, 1-(3-(2-(4-(3-((4-((3-chloro-4-fluorophenyl)amino)-7-methoxyquinazolin-6-yl)oxy)propyl)piperazin-1-yl)ethoxy)propionyl)-7′-(2,6-dioxopiperidin-3-yl)-3′,4′-dihydro-6′H-spiro[azetidine-3,2′-pyrano[2,3-f]isomdole]-6′,8′(7′H)-dione] | – | – | 71.2 | –
COc1cc2ncnc(Nc3ccc(F)c(Cl)c3)c2cc1OCCCN1CCN(CCOCCC(=O)N2CCC3(CC2)COc2cc4c(cc23)C(=O)N(C2CCC(=O)NC2=O)C4=O)CC1 (stereo not drawn) [PROTAC 24, 1′-(3-(2-(4-(3-((4-((3-chloro-4-fluorophenyl)amino)-7-methoxyquinazolin-6-yl)oxy)propyl)piperazin-1-yl)ethoxy)propionyl)-6-(2,6-dioxopiperidin-3-yl)-6-hydro-2H,5H-spiro[furo[2,3-f]isoindole-3,4′-piperdine]-5,7-dione] | – | – | 31.2 | –
Nc1ncnc2c1c(-c1ccc(Oc3ccccc3)cc1)nn2[C@@H]1CCCN(CCOCCC(=O)N2CCC3(CC2)COc2cc4c(cc2C3)C(=O)N(C2CCC(=O)NC2=O)C4=O)C1 (stereo partly drawn) [PROTAC 34, 1-(3-(2-((R)-3-(4-amino-3-(4-phenoxyphenyl)-1H-pyrazolo[3,4-d]pyrimidin-1-yl)piperidin-1-yl)ethoxy)propionyl)-7′-(2,6-dioxopiperidin-3-yl)-2′H-spiro[piperidine-4,3′-pyrano[2,3-f]isoindole]-6′,8′(4′H,7′H)-dione] | – | 13.9 | – | –
Cc1sc2c(c1C)C(c1ccc(Cl)cc1)=N[C@@H](CC(=O)N1CC3(CCc4cc5c(cc4O3)CN(C3CCC(=O)NC3=O)C5=O)C1)c1nnc(C)n1-2 (stereo partly drawn) [PROTAC 46, 3-(1-(2-((S)-4-(4-chlorophenyl)-2,3,9-trimethyl-6H-thieno[3,2-f][1,2,4]triazolo[4,3-a][1,4]diazepine-6-yl)acetyl)-6′-oxo-3′,4′,6′,8′-tetrahydro-7′H-spiro[azetidine-3,2′-pyrano[2,3-f]isoindole]-7′-yl)piperidine-2,6-dione] | 5.4 | – | – | 226
Cc1sc2c(c1C)C(c1ccc(Cl)cc1)=N[C@@H](CC(=O)N1CCC3(CCc4cc5c(cc4O3)CN(C3CCC(=O)NC3=O)C5=O)CC1)c1nnc(C)n1-2 (stereo partly drawn) [PROTAC 47, 3-(1-(2-((S)-4-(4-chlorophenyl)-2,3,9-trimethyl-6H-thieno[3,2-f][1,2,4]triazolo[4,3-a][1,4]diazepine-6-yl)acetyl)-6′-oxo-3′,4′,6′,8′-tetrahydro-7′H-spiro[piperidine-4,2′-pyrano[2,3-f]isoindole]-7′-yl)piperidine-2,6-dione] | 17 | – | – | 103
Cc1sc2c(c1C)C(c1ccc(Cl)cc1)=N[C@@H](CC(=O)N1CCC3(CCc4cc5c(cc4O3)C(=O)N(C3CCC(=O)NC3=O)C5)CC1)c1nnc(C)n1-2 (stereo partly drawn) [PROTAC 48, 3-(1-(2-((S)-4-(4-chlorophenyl)-2,3,9-trimethyl-6H-thieno[3,2-f][1,2,4]triazolo[4,3-a][1,4]diazepine-6-yl)acetyl)-8′-oxo-3′,4′,6′,8′-tetrahydro-7′H-spiro[piperidine-4,2′-pyrano[2,3-f]isoindole]-7′-yl)piperidine-2,6-dione] | 0.96 | – | – | 24
Cc1sc2c(c1C)C(c1ccc(Cl)cc1)=N[C@@H](CC(=O)N1CCC3(CC1)COc1cc4c(cc1O3)CN(C1CCC(=O)NC1=O)C4=O)c1nnc(C)n1-2 (stereo partly drawn) [PROTAC 49, 3-(1-(2-((S)-4-(4-chlorophenyl)-2,3,9-trimethyl-6H-thieno[3,2-f][1,2,4]triazolo[4,3-a][1,4]diazepine-6-yl)acetyl)-6′-oxo-6′,8′-dihydro-3′H,7′H-spiro[piperidin-4,2′-[1,4]dioxino[2,3-f]isoindole]-7′-yl)piperidine-2,6-dione] | 8.2 | – | – | 141
Cc1sc2c(c1C)C(c1ccc(Cl)cc1)=N[C@@H](CC(=O)N1CCC3(CCc4cc5c(cc4O3)C(=O)N(C3CCC(=O)NC3=O)C5=O)CC1)c1nnc(C)n1-2 (stereo partly drawn) [PROTAC 50, 1-(2-((S)-4-(4-chlorophenyl)-2,3,9-trimethyl-6H-thieno[3,2-f][1,2,4]triazole[4,3-a][1,4]diazepine-6-yl)acetyl)-7′-(2,6-dioxopiperidin-3-yl)-3′,4′-dihydro-6′H-spiro[piperidine-4,2′-pyrano[2,3-f]isoindole]-6′,8′(7′H)-dione] | 6.9 | – | – | 15
Cc1sc2c(c1C)C(c1ccc(Cl)cc1)=N[C@@H](CC(=O)N1CC3(CCc4cc5c(cc4O3)C(=O)N(C3CCC(=O)NC3=O)C5=O)C1)c1nnc(C)n1-2 (stereo partly drawn) [PROTAC 51, 1-(2-((S)-4-(4-chlorophenyl)-2,3,9-trimethyl-6H-thieno[3,2-f][1,2,4]triazole[4,3-a][1,4]diazepine-6-yl)acetyl)-7′-(2,6-dioxopiperidin-3-yl)-3′,4′-dihydro-6′H-spiro[azetidine-3,2′-pyrano[2,3-f]isoindole]-6′,8′(7′H)-dione] | 20 | – | – | 123
